# From patent US20190212343A1, “METHODS FOR THE TREATMENT OF DISORDERS RELATED TO PHOSPHORYLATION OF HISTONES” (H. LEE MOFFITT CANCER CENTER AND RESEARCH INSTITUTE, INC., priority 2014, published 2019)
# Residues, ends and D or L forms follow the SMILES beside them. *: point of attachment. Cbz = O=C(OCc1ccccc1)*
# Columns and labels:
# [1] = system: AR mRNA; test: AR mRNA levels in androgen-deprived prostate cancer cells (qPCR with AR primers); assay type: cell-based, human; details: androgen-deprived LAPC4 and LNCaP cells, overnight treatment
# [2] = system: PSA mRNA; test: PSA mRNA levels in androgen-deprived prostate cancer cells (qPCR with PSA primers); assay type: cell-based, human; details: overnight treatment
# Description: (FIG. 7A) VCaP and (FIG. 7B) LNCaP cells were grown in absence of androgen and were overnight treated with DZI-067 (7 uM in VCaP, 2.5 & 5 uM in LnCaP), AIM-100 (7 uM), PLX4032 (7 uM), Casodex, Enzalutamide (10 uM) and DHT (10 nM, 3 Hr). Total RNA was isolated followed by qPCR with AR primers. VCaP, *p=0.022, **p=0.018; LNCaP, *p=0.042, **p=0.047, ***p=0.029. (FIG. 7C) VCaP and (FIG. 7D) LNCaP cells were grown in absence of androgen and were overnight treated with DZ1-067 (7 uM in LAPC4, 2.5 & 5 uM in LnCaP), AIM-100 (7 uM), PLX4032 (7 uM), Casodex, Enzalutamide (10 uM) and DHT (10 nM, 3 Hr). Total RNA was isolated followed by qPCR with PSA primers.
# [3] = system: H4 Y88-phosphorylation (ACK1); test: Endogenous H4 pY88-phosphorylation in LNCaP cells (pY88-H4 immunoprecipitation / H4 immunoblot); assay type: cell-based, human; details: 16 hrs
# Description: FIGS. 9A-9E show ACK1 phosphorylates histone H4 at Tyrosine 88. (FIG. 9A) peptide were spotted followed by immunoblotting with indicated antibodies. (FIG. 9B) Equimolar amounts of purified ACK1 and H4 proteins were incubated in the presence of AIM-100 (100 nM) and reaction subjected to immunoblotting with pTyr antibodies. (FIG. 9C) In vitro kinase assay performed using purified ACK1 and H4, followed by immunoblotting with pY88-H4 antibodies. (FIG. 9D) H4 Y88-phosphorylation in vivo. LNCaP cells were treated with DZI-067, AIM-100 or Enzalutamide (7 uM, 16 hrs). The nuclear lysates were immunoprecipitated with pY88-H4 antibodies followed by immunoblotting with H4. Lower panel is input lysate. (FIG. 9E) LNCaP cells were treated with Crizotinib (1 uM, 16 hrs). The cell lysates were immunoprecipitated with pY88-H4 antibodies followed by immunoblotting with H4 (upper panel).
# To explore the sensitivity of endogenous H4 pY88-phosphorylation to ACK1 inhibitor, LNCaP cells were treated with DZI-067, AIM-100 or Enzalutamide.
# Applicant also assessed the sensitivity of endogenous H4 pY88-phosphorylation to small molecule inhibitor, Crizotinib, also known as Xalkori (Pfizer). […] It is approved for treatment of some non-small cell lung carcinoma (NSCLC).
# [4] = system: CRPC patients; details: cited from earlier work
# [5] = system: AR protein levels; test: AR protein levels in androgen deprived prostate cancer cells (immunoblotting); assay type: cell-based, human; details: LNCaP cells, MG 132 10 uM 6 hr, in presence or absence of AIM-100
# Description: (FIG. 6A) Androgen starved LAPC4 cells were treated with DHT (10 nM, 16 Hrs), AIM-100, DZI-067, Enzalutamide or PLX4032 (7 uM, 36 Hr) and AR, pACK1 and Actin levels were determined by immunoblotting (IB). The relative level of AR is shown below. (FIG. 6B) Androgen deprived LNCaP and VCaP cell were untreated or treated with 2.5, 5 and 10 uM of AIM-100 and lysates were immunoblotted. The quantitation of AR expression is shown. (FIG. 6C) Androgen deprived LNCaP and VCaP cell were untreated or treated with 2.5, 5 and 10 uM of DZI-067 and lysates were immunoblotted. The quantitation of AR expression is shown. (FIG. 6D) LNCaP cells were transfected with control and Ack1 siRNAs followed by immunoblotting. (FIG. 6E) LNCaP cells treated with AIM-100 (7 uM, 16 hr) or MG 132 (10 uM, 6 hr) were immunoblotted with AR antibodies. […]
# AR has been known to interact with an ubiquitin E3 ligase, RNF6, causing AR ubiquitination, which in turn promoted AR transcriptional activity (Xu, K. et al. (2009) Cancer Cell 15(4):270-282). To determine whether post-translational modification has role to play in suppression of AR levels upon Ack1 kinase inhibition, LNCaP cells were treated with proteosomal inhibitor, MG-132 and AR levels were measured in presence or absence of AIM-100.
# [6] = system: IDH2 transcript; test: Epigenetic marks and IDH2 transcript levels in melanoma cancer cells; assay type: cell-based, human
# [7] = system: WEE1; details: yeast and mammalian cells; cited from earlier work
# [8] = system: WEE1 expressing cancer cell lines; details: cited from earlier work
compound,measurement,setting,value
CC(O)(CS(=O)(=O)c1ccc(F)cc1)C(=O)Nc1ccc(C#N)c(C(F)(F)F)c1 (stereo not drawn) [Casodex],AR mRNA levels,[1],no significant change in AR mRNA levels
same,PSA mRNA levels,[2],significantly suppressed PSA mRNA levels
C[C@@H](Oc1cc(-c2cnn(C3CCNCC3)c2)cnc1N)c1c(Cl)ccc(F)c1Cl [Crizotinib],endogenous pY88-phosphorylation of H4,[3]; 1 uM,significant loss of endogenous pY88-phosphorylation of H4
"C[C@]12CCC(=O)C[C@@H]1CC[C@@H]1[C@@H]2CC[C@]2(C)[C@@H](O)CC[C@@H]12 [DHT, dihydrotestosterone]",AR mRNA levels,[1],no significant change in AR mRNA levels
same,endogenous pY88-phosphorylation of H4,[3]; 7 uM,unaffected
CNC(=O)c1ccc(N2C(=S)N(c3ccc(C#N)c(C(F)(F)F)c3)C(=O)C2(C)C)cc1F [Enzalutamide],AR mRNA levels,[1],no significant change in AR mRNA levels
same,PSA mRNA levels,[2],significantly suppressed PSA mRNA levels
same,endogenous pY88-phosphorylation of H4,[3]; 7 uM,unaffected
same,CRPC patients in whom treatment is effective,[4],12 out of 30
same,overall survival advantage,[4],4-6 months
same,time to relapse of the most responding patients,[4],≤ 2 years
CC(C)C[C@@H](C=O)NC(=O)[C@H](CC(C)C)NC(=O)[C@H](CC(C)C)NC(=O)OCc1ccccc1 [MG-132] (Cbz-Leu-Leu-Leu-aldehyde),loss of AR caused by Ack1 kinase inhibition,[5],did not prevent loss of AR
C=CCn1c(=O)c2cnc(Nc3ccc(N4CCN(C)CC4)cc3)nc2n1-c1cccc(C(C)(C)O)n1 [MK-1775],IDH2 transcript levels,[6],increasing IDH2 transcript levels
same,WEE1 epigenetic marks,[6],reversed epigenetic marks
same,WEE1 epigenetic activity,[7],inhibited WEE1 epigenetic activity
same,histone transcriptional suppression,[7],robustly reversed histone transcriptional suppression
same,apoptosis,[8],selectively induces apoptosis
CCCS(=O)(=O)Nc1ccc(F)c(C(=O)c2c[nH]c3ncc(-c4ccc(Cl)cc4)cc23)c1F [PLX4032],AR mRNA levels,[1],no significant change in AR mRNA levels
